Data: patent US11564923B2, “Compounds and pharmaceutical compositions thereof for the treatment of inflammatory disorders” (Galapagos NV, priority 2017, dated 2023)
Structures can show the parent of a compound that is named as a salt.

Key:
[1] = target: T1, Recombinant human JAK1 (catalytic domain, amino acids 866-1154) (Homo sapiens, UniProt P23458); assay: JAK1 inhibition assay; assay type: biochemical; conditions: read-out: JAK1 potency IC50
T1 construct: catalytic domain, amino acids 866-1154
Method: (§1) After 60 min at room temperature, reactions are stopped by adding 20 μL/well of detection mixture (1× detection buffer (Perkin Elmer, catalog number CR97-100), 0.5 nM Europium-anti-phosphotyrosine (PT66) (Perkin Elmer, catalog number AD0068/AD0069), 10 mM EDTA). […] Kinase activity is calculated by subtracting the ratio obtained in the presence of a positive control inhibitor (1 μM staurosporine) from the ratio obtained in the presence of vehicle. The ability of a test compound to inhibit this activity (or percentage inhibition) is determined as:
(§2) [formula] wherein Fluorescent ratio test compound=ratio RFU665/RFU615*1000 determined for sample with test compound present Fluorescent ratio control=ratio RFU665/RFU615*1000 determined for sample with positive control inhibitor Fluorescent ratio vehicle=ratio RFU665/RFU615*1000 determined in the presence of vehicle
(§3) Dose dilution series were prepared for the compounds enabling the testing of dose-response effects in the JAK1 assay and the calculation of the IC50 for the compound. Each compound is routinely tested at concentration of 20 μM followed by a 1/5 serial dilution, 10 points in a final concentration of 1% DMSO. […] The data are expressed as the average IC50 from the assays.

[2] = target: T2, Recombinant human JAK2 (catalytic domain, amino acids 808-1132) (Homo sapiens, UniProt O60674); assay: JAK2 inhibition assay; assay type: biochemical; conditions: read-out: JAK2 potency IC50; also: 0.7 µM ATP
T2 construct: catalytic domain, amino acids 808-1132
Method: as §1, with “CR97-100) with” for “CR97-100),”, “AD0068/AD0069) and” for “AD0068/AD0069),”
as §2
as §3, with “are” for “were”, “compound” for “the compounds”, “JAK2” for “JAK1”

[3] = target: T3, Recombinant human TYK2 catalytic domain (amino acids 871-1187) (Homo sapiens, UniProt P29597); assay: TYK2 radioactive assay polyGT substrate; assay type: biochemical; also: 0.1 µM ATP
T3 construct: catalytic domain (amino acids 871-1187)
T3 sequence (P29597 871-1187): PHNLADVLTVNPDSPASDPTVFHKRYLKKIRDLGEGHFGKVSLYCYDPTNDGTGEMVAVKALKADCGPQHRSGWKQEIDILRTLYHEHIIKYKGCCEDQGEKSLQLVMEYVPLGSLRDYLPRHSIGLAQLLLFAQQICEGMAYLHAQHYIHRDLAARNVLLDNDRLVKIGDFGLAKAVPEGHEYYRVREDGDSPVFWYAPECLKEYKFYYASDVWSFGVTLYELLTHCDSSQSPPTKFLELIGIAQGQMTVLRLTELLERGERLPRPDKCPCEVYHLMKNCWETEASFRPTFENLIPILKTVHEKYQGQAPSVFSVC
Procedure, shortened: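 Reaction at 30° C. for 120 min, ended with 150 mM phosphoric acid, washed, counted; percent inhibition scaled between vehicle and 10 μM staurosporine cpm.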

[4] = tested on: IFNα activation of STAT1 in PBMC; assay: IFNα activation of STAT1 in PBMC; assay type: cell-based; conditions: Homo sapiens; IFNα activation of STAT1 in PBMC; average IC50; read-out: IFNα signaling inhibitory potency IC50
Method: After these 2 wash steps the cell pellet is dissolved in ammonium chloride buffer (1.5 M NH4Cl, 100 mM NaHCO3 and 10 mM Na2.EDTA) for lysis of the red blood cells.
PBMC are treated with test compound for 30 min at 37° C. 5% CO2. […] After 30 min of test compound/vehicle pre-treatment, PBMC are stimulated for 30 min at 37° C. 5% CO2 with recombinant human IFNα (PeproTech, catalog number 300-02A) at a final concentration of 5 ng/mL by addition of 20 μL (10× concentrated) cytokine trigger to obtain a final volume of 200 μL per well.
After 30 min of cytokine stimulation, 200 μL of cell suspension is transferred to a 96-well V-bottom plate, centrifugated for 5 min at 1000 rpm to pellet cells, followed by removal of supernatant.
(§4) The percentage inhibition is calculated as: […]
RCLU(vehicle control): Relative Chemiluminescent signal determined in presence of vehicle and trigger
RCLU(test compound): Relative Chemiluminescent signal determined in presence of test compounds and trigger
RCLU(positive control): Relative Chemiluminescent signal determined in presence of positive control and trigger
PIN values are plotted for compounds tested in dose-response and average IC50 values are derived using GraphiPad Prism Software applying non-linear regression (sigmoidal) curve fitting.

[5] = tested on: IL-12 activation of STAT4 in NK-92 cells; assay: IL-12 activation of STAT4 in NK-92 cells using AphaLISA SureFire technology; assay type: cell-based; conditions: Homo sapiens, NK92; IL-12 activation of STAT4 in NK-92 cells, AlphaLISA SureFire; average IC50; read-out: IL12 pSTAT4 IC50
Method: IL-2 is added freshly to the medium with each medium refreshment step. Cells are cultured in a humidified incubator at 37° C. 5% CO2.
A subcultured fraction of NK-92 cells is washed once in culture medium without rhIL-2 the day before the experiment and incubated overnight in a culture flask.
5% CO2. […] NK-92 cells are triggered with rhIL-12 for 30 min at 37° C. 5% CO2.
After 30 min of cytokine stimulation the cells are lysed by addition of 15 μL 5× lysis buffer (supplemented with the AlphaLISA kit). After 10 minutes, plates are frozen at −80° C. overnight and the next day the levels of phospho-STAT4 are quantified using the AlphaLISA SureFire ULTRA p-STAT4 (Tyr693) (Perkin Elmer, Catalogue number ALSU-PST4-A10K) according to the manufacturers instructions. AlphaLISA signal (relative light units) is measured using an Envision (Perkin Elmer).
as §4
RLU(trigger/veh): Relative lumescent signal determined in presence of vehicle and trigger
RLU(test compound): Relative luminescent signal determined in presence of test compounds and trigger
PIN values are plotted for compounds tested in dose-response and IC50 values are derived using GraphPad Prism Software applying non-linear regression (sigmoidal) curve fitting. The data are expressed as the average IC50 from different experiments.

T2 sequence (O60674 808-1132): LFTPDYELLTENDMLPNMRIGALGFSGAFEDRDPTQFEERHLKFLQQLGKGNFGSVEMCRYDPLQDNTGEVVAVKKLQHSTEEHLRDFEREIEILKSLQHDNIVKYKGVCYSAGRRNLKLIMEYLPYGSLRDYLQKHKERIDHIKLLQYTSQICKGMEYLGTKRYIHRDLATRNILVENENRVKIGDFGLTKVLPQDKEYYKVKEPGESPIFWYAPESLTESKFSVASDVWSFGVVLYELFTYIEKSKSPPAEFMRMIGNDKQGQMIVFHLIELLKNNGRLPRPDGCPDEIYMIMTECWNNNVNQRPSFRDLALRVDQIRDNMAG
T1 sequence (P23458 866-1154): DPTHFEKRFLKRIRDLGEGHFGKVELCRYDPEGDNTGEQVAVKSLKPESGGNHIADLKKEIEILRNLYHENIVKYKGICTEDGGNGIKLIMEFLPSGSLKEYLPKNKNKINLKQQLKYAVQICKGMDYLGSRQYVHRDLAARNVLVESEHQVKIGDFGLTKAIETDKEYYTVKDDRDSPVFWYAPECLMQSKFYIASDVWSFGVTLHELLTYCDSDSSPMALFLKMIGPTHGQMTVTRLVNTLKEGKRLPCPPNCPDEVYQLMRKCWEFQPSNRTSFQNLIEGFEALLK

Row | Structure (SMILES) | IC50 [1] [nM] | IC50 [2] [nM] | IC50 [3] [nM] | IC50 [4] [nM] | IC50 [5] [nM]
1 | Cc1cc(C#N)ncc1Oc1cc(Nc2ccc(C(=O)NCC(C)O)nc2)c2ncn(C)c2n1 (centres unmarked) [Compound 30, 5-[5-(6-Cyano-4-methyl-pyridin-3-yloxy)-3-methyl-3H-imidazo[4,5-b]pyridin-7-ylamino]-pyridine-2-carboxylic acid (2-hydroxy-propyl)-amide] | 399 | 777 | 55.7 | – | –
2 | Cc1cc(C#N)ncc1Oc1cc(Nc2ccc(CN(C)CCN(C)C)cn2)c2ncn(C)c2n1 [Compound 83, 5-[7-[[5-[[2-(dimethylamino)ethyl-methylamino]methyl]pyridin-2-yl]amino]-3-methylimidazo[4,5-b]pyridin-5-yl]oxy-4-methylpyridine-2-carbonitrile formate salt] | 278 | 27.1 | 16.3 | 137 | 987
3 | Cc1cc(C#N)ncc1Oc1cc(Nc2ccc(C(=O)N3CC(OC(C)C)C3)cn2)c2ncn(C)c2n1 [Compound 137, 4-methyl-5-[3-methyl-7-[[5-(3-propan-2-yloxyazetidine-1-carbonyl)pyridin-2-yl]amino]imidazo[4,5-b]pyridin-5-yl]oxypyridine-2-carbonitrile] | – | – | 2.32 | 62 | 89
4 | Cc1cc(C#N)ncc1Oc1cc(Nc2ccc(C(=O)N3CCC(C)(O)CC3)cn2)c2ncn(C)c2n1 [Compound 138, 5-[7-[[5-(4-hydroxy-4-methylpiperidine-1-carbonyl)pyridin-2-yl]amino]-3-methylimidazo[4,5-b]pyridin-5-yl]oxy-4-methylpyridine-2-carbonitrile] | – | – | 1.66 | 91 | 332
5 | Cc1cc(C#N)ncc1Oc1cc(Nc2ccc(C(=O)N3CCO[C@@H](C)C3)cn2)c2ncn(C)c2n1 [Compound 144, 4-methyl-5-[3-methyl-7-[[5-[(2S)-2-methylmorpholine-4-carbonyl]pyridin-2-yl]amino]imidazo[4,5-b]pyridin-5-yl]oxypyridine-2-carbonitrile] | – | – | 2.15 | 119 | 211
6 | Cc1cc(C#N)ncc1Oc1cc(Nc2ccc(C(=O)N3CCO[C@H](C)C3)cn2)c2ncn(C)c2n1 [Compound 145, 4-methyl-5-[3-methyl-7-[[5-[(2R)-2-methylmorpholine-4-carbonyl]pyridin-2-yl]amino]imidazo[4,5-b]pyridin-5-yl]oxypyridine-2-carbonitrile] | – | – | 2 | 134 | 238
7 | Cc1cc(C#N)ncc1Oc1cc(Nc2ccc(C(=O)N3CCOC[C@@H]3C)cn2)c2ncn(C)c2n1 [Compound 147, 4-methyl-5-[3-methyl-7-[[5-[(3S)-3-methylmorpholine-4-carbonyl]pyridin-2-yl]amino]imidazo[4,5-b]pyridin-5-yl]oxypyridine-2-carbonitrile] | – | – | 1.66 | 121 | 213
8 | Cc1cc(C#N)ncc1Oc1cc(Nc2ccc(C(=O)N3C[C@@H](C)O[C@@H](C)C3)cn2)c2ncn(C)c2n1 [Compound 148, 4-methyl-5-[3-methyl-7-[[5-[rac-(2R,6S)-2,6-dimethylmorpholine-4-carbonyl]pyridin-2-yl]amino]imidazo[4,5-b]pyridn-5-yl]oxypyridine-2-carbonitrile] | – | – | 2.08 | 142 | 160
9 | Cc1cc(C#N)ncc1Oc1cc(Nc2ccc(C(=O)N3C[C@@H](O)[C@H](N(C)C)C3)cn2)c2ncn(C)c2n1 [Compound 153, 5-{7-[5-((3R,4R)-3-Dimethylamino-4-hydroxy-pyrrolidine-1-carbonyl)-pyridin-2-ylamino]-3-methyl-3H-imidazo[4,5-b]pyridin-5-yloxy}-4-methyl-pyridine-2-carbonitrile] | – | – | 1.83 | 234 | 7580
10 | Cc1cc(C#N)ncc1Oc1cc(Nc2ccc(C(=O)N3C[C@H](O)[C@@H](N4CCOCC4)C3)cn2)c2ncn(C)c2n1 [Compound 154, 5-{7-[5-((3S,4S)-3-Hydroxy-4-morpholin-4-yl-pyrrolidine-1-carbonyl)-pyridin-2-ylamino]-3-methyl-3H-imidazo[4,5-b]pyridin-5-yloxy}-4-methyl-pyridine-2-carbonitrile] | – | – | 3.36 | 351 | 8720
11 | Cc1cc(C#N)ncc1Oc1cc(Nc2ccc(C(=O)N3CC4CC3CO4)cn2)c2ncn(C)c2n1 (centres unmarked) [Compound 158, 4-methyl-5-[3-methyl-7-[[5-(2-oxa-5-azabicyclo[2.2.1]heptane-5-carbonyl)pyridin-2-yl]amino]imidazo[4,5-b]pyridin-5-yl]oxypyridine-2-carbonitrile] | – | – | 1.21 | 87 | 204
12 | Cc1cc(C#N)ncc1Oc1cc(Nc2ccc(C(=O)N3CCNCC3)cn2)c2ncn(C)c2n1 [Compound 178, 4-methyl-5-[3-methyl-7-[[5-(piperazine-1-carbonyl)pyridin-2-yl]amino]imidazo[4,5-b]pyridin-5-yl]oxypyridine-2-carbonitrile] | – | – | 3.39 | 189 | 2570
